US7455990B2, “Method of extracting recombinant hexose oxidase” (priority 1999, dated 2008)
Marks after values point to notes of the source that are not given here.

Tests used:
[1] = test system: cell suspension (HOX9910B); assay: Comparison between CTAB and other emulsifiers for extraction of HOX; format: cell-based, Hansenula polymorpha; settings: 20 h, 25°C, control (cells and buffer) = 100
Experimental: Five mL of cell suspension (cells+supernatant) was added to a 15 mL centrifuge tube (HOX9910B, 305 g cells/liter wet weight, 1.6 U/ml extracellular HOX activity). Cells were separated by centrifugation at 4000 g for 10 min. Cells were then re-suspended in 4.0 mL 25 mM citric acid, pH 6.3 supplemented with either CTAB, emulsifiers SLL, YN, capric acid, lysolecithin, or lecithin. The cells were then incubated for 20 hours at 25° C. (500 rpm).

[2] = test system: Hansenula polymorpha; assay: HOX extraction with different quaternary ammonium compounds; format: cell-based; settings: final concentration 0.4% (w/v); 24 h, 25°C, 200 RPM; LTAB = 100
Experimental: Several quaternary ammonium compounds were tested with respect to extraction of the intracellular HOX enzyme from Hansenula polymorpha. A sample of fermentation broth was withdrawn from a 6 L scale fermentation where the biomass concentration was approximately 340 g wet weight per L. One mL of a 4% (w/v) solution of each of the quaternary ammonium compounds listed in Table 8 was added to 9 mL of fermentation broth in plastic tubes. After 24 h of incubation at 25° C. at 200 RPM the tubes were centrifuged 10 min. at 12000 g. The supernatants were analysed for HOX activity using the HOX assay as previously described.

[3] = test system: cell suspension (HOX9926-7); assay: Extraction of HOX by CTAB combined with salts and at different temperatures; format: cell-based, Hansenula polymorpha; settings: for HOX activity, %: 26 h, 25°C, control = 100
Experimental: In order to examine the mechanism of the CTAB effect, CTAB was combined with chaotrophic and nonchaotrophic salts. Five mL cell suspension (cells+supernatant) was added to a 15 mL centrifuge tube (HOX9926-7, 317 g cells/liter wet weight, 0.3 U/mL extracellular HOX activity). Cells were separated by centrifugation at 4000 g for 10 min. The supernatant was then supplemented with either CTAB, CTAB+NaCl, CTAB+urea, CTAB+ammonium sulphate, or the non-ionic detergent, octyl-glucoside. The cells were then re-suspended in 4.0 mL supernatant and incubated for 26 hours at 25° C. (500 rpm). In this experiment, the effect of shaking and temperature was also investigated. After incubation, the cell-free extract was used to estimate HOX activity using the HOX assay as outlined in Example 4.

[4] = test system: H. polymorpha; assay: Comparison of mechanical and LTAB recovery of glucan lyase (DNS method); format: cell-based, Hansenula polymorpha; settings: induced cells, transformants 2 and 8; 0.2% LTAB versus Mini Bead-Beater
Experimental: The cells are resuspended in 5 mM sodium acetate pH=5.5 with 0.2% LTAB at 30% wet biomass in order to lyse the cells and release the intracellular glucan lyase.
The tubes are incubated over night with shaking at 37° C. The cells are harvested by centrifuging at 4000 rpm in 10 minutes and the glucan lyase activity is determined in the cell-free extract and in the pellet. This is done to check if LTAB had opened the cells successfully before starting the purification of glucan lyase.
Two transformants that expressed a high level of glucan lyase (transformant number 2 and 8) are grown at 24° C.
To compare the specific activity under repressed and induced conditions samples are collected when the cells are grown in YND+2% glucose (repressed) and in YND+1% glycerol with 1% methanol added on the second day of growth (induced).
The assay is performed as described in S. Yu et al., 1998. The red colour indicates glucan lyase activity is much stronger when the induced cells are opened with LTAB compared with opening of the cells mechanically on a Mini Bead-Beater (E1-E12 compared with C1-C12). […] When the cells are grown in YND+2% glucose a very low specific activity is observed as expected since the FMD promoter is repressed in this media. […] The assay detected a quite high glucan lyase activity in the pellet.

[5] = test system: Pichia pastoris strain #349; assay: HOX extraction with LTAB from Pichia pastoris; format: cell-based; settings: 180 μL of 10% (w/v) LTAB in 9 mL broth; 24 h, 30°C; control = 100
Experimental: The extracting effect of LTAB was tested on the Pichia pastoris strain #349 that produces HOX intracellularly. A sample of fermentation broth was withdrawn from a 6 L scale fermentation where the biomass concentration was approximately 232 g wet weight per L. Nine mL of fermentation broth was added to plastic tubes together with 0 (control) or 180 μL of a 10% (w/v) solution of LTAB. After 24 h of incubation at 30° C. at 20 RPM the tubes were centrifuged 5 min. at 9000 g. The supernatants were analysed for HOX activity using the HOX assay as previously described.

[6] = test system: Hansenula polymorpha; assay: Time course of HOX extraction with CTAB, LTAB and CTAC; format: cell-based; settings: 25°C
Experimental: The time course of HOX extraction was studied with CTAB, LTAB and CTAC. A fermentation sample containing 280 g wet weight of Hansenula polymorpha per L was withdrawn from the fermentor. A 4% (w/v) solution of CTAB, LTAB and CTAC was added to a final concentration of 0.2 or 0.4% (w/v) to plastic tubes containing 9 mL of fermentation broth. After 0, 7, 17, 24, and 48 h of incubation at 25° C. at 200 RPM the tubes were centrifuged 10 min. at 12000×g. The supernatants were analysed for HOX activity using the HOX assay as previously described.

[7] = Determination of LTAB by LC-ESI-MS (optimised method) in fermentation supernatants; settings: 0.20% (w/v) LTAB added
Experimental: The analysis method for the quaternary ammonium compounds was optimised by using a different column, and by using different mobile phase. Two 90 L scale fermentations (Vest0002b with a biomass concentration of 314 g/L wet cells and Vest0003b with a biomass concentration of 332 g/L wet cells) were added LTAB to a concentration of 0.20% (w/v), and HOX was extracted for 24 h. A sample from each fermentation was centrifuged at 10000 g for 10 minutes, and the resulting supernatants were withdrawn for LTAB analysis. The following method was used to quantify the LTAB content in the supernatants by means of LC-ESI-MS on a Hewlett-Packard 1100 HPLC-MS system consisting of the following units:
The system was equipped with a PLRP-S, 100 Å, 5 μm, 250×4.6 […] id. (Polymer Laboratories) column. Column temperature was 25° C.
The chromatographic conditions were a mobile phase consisting of 0.1% heptafluorobutyric acid in methanol. The column was run with a solvent flow rate of 1.00 mL/min and an injection volume of 5 μL. The samples were diluted 25 fold with methanol and filtered through Gelman GHP Acrodisc 13 mM Minispike […] before injection.
The detector settings were the following: SIM parameters: m/z 228.1 (lauroyltrimethylammonium cation). […]

[8] = test system: Hansenula polymorpha; assay: HOX extraction with CTAB compared to Triton X-100; format: cell-based; settings: for HOX activity: 22 h, 25°C, 200 rpm, control ferment 1.2
Experimental: CTAB or Triton X-100 was added to 5 mL of ferment, (sample HOX9954, Mut 45, 18.10.99, HVP) in a centrifuge tube. Water was added to the control. The samples were incubated at 25° C. for 22 h at 200 rpm. After incubation the samples were centrifuged and the supernatant was analyzed for HOX activity as previously described.

[9] = 0.4% in 25 mM citric acid pH 6.3
[10] = 0.5% in 25 mM citric acid pH 6.3
[11] = 1.0% in 25 mM citric acid pH 6.3

For 3-sn-phosphatidylcholine [lecithin], the “HOX activity, %” value [1, 9] was 140%.

In the case of `CCCCCCCCCCCCCC[N+](C)(C)C.[Cl-]` [MTAC, Myristyl Trimethyl Ammonium Chloride], the “Extracted HOX activity normalised with extracted amount with LTAB” value (“Extracted HOX activity normalised … with LTAB” for short) [2] is reported as 71.

With `CCCCCCCCCCCCCCCCCC(=O)[N+](C)(C)C.[Br-]` [STAB, Stearoyl Trimethyl Ammonium Bromide] the “Extracted HOX activity normalised … with LTAB” value [2] was 38.

With `CCCCCCCCCC(=O)O` [capric acid, decanoic acid] the “HOX activity, %” value [1, 10] was 120% and the “HOX activity, %” value [1, 11] was 140%.

For `CCCCCCCCCCCC(=O)OC(C)C(=O)OC(C)C(=O)[O-].[Na+]` (stereo not shown) [emulsifier SSL, Sodium Lauroyl Lactylate], the “HOX activity, %” value [1, 10] was 160% and the “HOX activity, %” value [1, 11] was 140%.

With `CCCCCCCCO[C@@H]1O[C@H](CO)[C@@H](O)[C@H](O)[C@H]1O` [octyl-glycoside, octyl-glucoside] the “extracting effect on HOX” value ([3]; 0.2% and 0.4%) was “no significant extracting effect”, the “HOX activity, %” value ([3]; 0.2%) was 130% and the “HOX activity, %” value ([3]; 0.4%, 500 rpm) was 190%.

With “Lauroyl Trimethyl Ammonium Bromide [LTAB]” the “specific activity of glucan lyase, LTAB-treated cells versus mechanical opening” value [4] was roughly 60 fold, the “Extracted HOX activity normalised to the control tube without LTAB” value [5] was 3000^c and the “Extracted HOX normalised to 0.4% (w/v) LTAB after 48 h” value ([6]; 0.2% (w/v), 0 h) was 5. The “Extracted HOX normalised to 0.4% (w/v) LTAB after 48 h” value ([6]; 0.2% (w/v), 7 h) was 15, the “Extracted HOX normalised to 0.4% (w/v) LTAB after 48 h” value ([6]; 0.2% (w/v), 17 h) was 49 and the “Extracted HOX normalised to 0.4% (w/v) LTAB after 48 h” value ([6]; 0.2% (w/v), 24 h) was 65. The “Extracted HOX normalised to 0.4% (w/v) LTAB after 48 h” value ([6]; 0.2% (w/v), 48 h) was 78, the “Extracted HOX normalised to 0.4% (w/v) LTAB after 48 h” value ([6]; 0.4% (w/v), 0 h) was 6 ± 1, and the “Extracted HOX normalised to 0.4% (w/v) LTAB after 48 h” value ([6]; 0.4% (w/v), 7 h) was 25. The “Extracted HOX normalised to 0.4% (w/v) LTAB after 48 h” value ([6]; 0.4% (w/v), 17 h) was 74, the “Extracted HOX normalised to 0.4% (w/v) LTAB after 48 h” value ([6]; 0.4% (w/v), 24 h) was 83 ± 8, and the “Extracted HOX normalised to 0.4% (w/v) LTAB after 48 h” value ([6]; 0.4% (w/v), 48 h) was 100 ± 25,. For the same compound, the “Extracted HOX activity normalised … with LTAB” value [2] was 100 and the “share of the added LTAB found in the cell free fraction” value [7] was “about 27%”.

In the case of lysophosphatidylcholine [lyso-lecithin], the “HOX activity, %” value [1, 9] is reported as 260%.

In the case of “polyethoxylated octylphenol [Triton X-100]”, the HOX activity ([8]; 0.1%) is reported as 1.5 U/mL, the “extracting effect on HOX” value ([8]; 0.1-1.0%) is reported as “no extracting effect” and the HOX activity ([8]; 0.2%) is reported as 1.6 U/mL. For the same compound, the HOX activity ([8]; 0.4%) was 1.8 U/mL, the HOX activity ([8]; 0.6%) was 1.9 U/mL and the HOX activity ([8]; 1.0%) was 1.9 U/mL.
